What was measured:
[1] = target: Cyclin-dependent kinase 5 (Homo sapiens) (UniProt Q00535); assay: Inhibition of CDK5 (unknown origin) assessed as residual activity at 1000 nM by KINOMEscan analysis relative to control
[2] = target: Citron Rho-interacting kinase (Homo sapiens) (UniProt O14578); assay: Inhibition of CIT (unknown origin) assessed as residual activity at 1000 nM by KINOMEscan analysis relative to control
[3] = system: Receptor-type tyrosine-protein kinase FLT3 (Homo sapiens), P36888 [D835Y]; assay: Inhibition of FLT3 D835Y mutant (unknown origin) assessed as residual activity at 1000 nM by KINOMEscan analysis relative to control
[4] = system: Receptor-type tyrosine-protein kinase FLT3 (Homo sapiens), P36888 [UNDEFINED MUTATION]; assay: Inhibition of FLT3 ITD mutant (unknown origin) assessed as residual activity at 1000 nM by KINOMEscan analysis relative to control
[5] = target: T1, Tyrosine-protein kinase ITK/TSK (Homo sapiens) (UniProt Q08881); assay: Inhibition of ITK (unknown origin) assessed as residual activity at 1000 nM by KINOMEscan analysis relative to control
T1 sequence (whole entry): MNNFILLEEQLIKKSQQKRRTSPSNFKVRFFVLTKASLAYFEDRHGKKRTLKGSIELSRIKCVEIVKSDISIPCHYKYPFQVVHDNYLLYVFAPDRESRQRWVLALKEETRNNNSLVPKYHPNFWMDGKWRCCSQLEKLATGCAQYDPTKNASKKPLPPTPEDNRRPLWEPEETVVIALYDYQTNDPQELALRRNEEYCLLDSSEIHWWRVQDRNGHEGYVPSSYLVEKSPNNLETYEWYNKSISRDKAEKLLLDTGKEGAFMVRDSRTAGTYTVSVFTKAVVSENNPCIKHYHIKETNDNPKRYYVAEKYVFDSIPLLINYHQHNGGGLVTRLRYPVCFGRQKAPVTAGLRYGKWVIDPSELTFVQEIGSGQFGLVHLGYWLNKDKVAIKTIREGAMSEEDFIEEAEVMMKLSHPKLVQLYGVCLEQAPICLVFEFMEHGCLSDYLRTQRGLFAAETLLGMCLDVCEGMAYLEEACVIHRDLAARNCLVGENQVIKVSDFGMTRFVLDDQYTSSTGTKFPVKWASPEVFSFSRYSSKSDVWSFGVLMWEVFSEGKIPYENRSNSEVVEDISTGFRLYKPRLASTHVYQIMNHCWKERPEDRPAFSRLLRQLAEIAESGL

[6] = target: T2, SNF-related serine/threonine-protein kinase (Homo sapiens) (UniProt Q9NRH2); assay: Inhibition of SNRK (unknown origin) assessed as residual activity at 1000 nM by KINOMEscan analysis relative to control
T2 sequence (whole entry): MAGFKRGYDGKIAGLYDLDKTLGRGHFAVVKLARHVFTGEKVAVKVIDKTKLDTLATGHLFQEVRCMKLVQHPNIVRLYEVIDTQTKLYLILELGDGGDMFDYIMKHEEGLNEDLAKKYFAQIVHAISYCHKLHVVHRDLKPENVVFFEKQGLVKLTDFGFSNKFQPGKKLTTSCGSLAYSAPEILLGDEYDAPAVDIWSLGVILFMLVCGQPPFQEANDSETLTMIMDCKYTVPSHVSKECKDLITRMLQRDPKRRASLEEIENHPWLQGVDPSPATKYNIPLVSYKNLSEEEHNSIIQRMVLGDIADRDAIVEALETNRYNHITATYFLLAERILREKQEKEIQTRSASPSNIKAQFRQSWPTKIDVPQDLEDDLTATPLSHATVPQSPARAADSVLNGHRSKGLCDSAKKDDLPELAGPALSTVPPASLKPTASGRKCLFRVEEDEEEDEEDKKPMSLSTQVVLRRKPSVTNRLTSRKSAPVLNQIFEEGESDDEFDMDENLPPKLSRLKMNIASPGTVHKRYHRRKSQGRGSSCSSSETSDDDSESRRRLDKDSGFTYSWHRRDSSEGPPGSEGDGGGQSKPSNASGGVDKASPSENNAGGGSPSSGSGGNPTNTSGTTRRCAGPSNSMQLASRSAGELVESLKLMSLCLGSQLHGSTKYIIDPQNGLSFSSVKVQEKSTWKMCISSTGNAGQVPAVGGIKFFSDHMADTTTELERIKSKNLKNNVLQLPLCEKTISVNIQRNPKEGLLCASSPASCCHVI

[7] = target: T3, Tyrosine-protein kinase receptor TYRO3 (Homo sapiens) (UniProt Q06418); assay: Inhibition of TYRO3 (unknown origin) assessed as residual activity at 1000 nM by KINOMEscan analysis relative to control
T3 sequence (whole entry): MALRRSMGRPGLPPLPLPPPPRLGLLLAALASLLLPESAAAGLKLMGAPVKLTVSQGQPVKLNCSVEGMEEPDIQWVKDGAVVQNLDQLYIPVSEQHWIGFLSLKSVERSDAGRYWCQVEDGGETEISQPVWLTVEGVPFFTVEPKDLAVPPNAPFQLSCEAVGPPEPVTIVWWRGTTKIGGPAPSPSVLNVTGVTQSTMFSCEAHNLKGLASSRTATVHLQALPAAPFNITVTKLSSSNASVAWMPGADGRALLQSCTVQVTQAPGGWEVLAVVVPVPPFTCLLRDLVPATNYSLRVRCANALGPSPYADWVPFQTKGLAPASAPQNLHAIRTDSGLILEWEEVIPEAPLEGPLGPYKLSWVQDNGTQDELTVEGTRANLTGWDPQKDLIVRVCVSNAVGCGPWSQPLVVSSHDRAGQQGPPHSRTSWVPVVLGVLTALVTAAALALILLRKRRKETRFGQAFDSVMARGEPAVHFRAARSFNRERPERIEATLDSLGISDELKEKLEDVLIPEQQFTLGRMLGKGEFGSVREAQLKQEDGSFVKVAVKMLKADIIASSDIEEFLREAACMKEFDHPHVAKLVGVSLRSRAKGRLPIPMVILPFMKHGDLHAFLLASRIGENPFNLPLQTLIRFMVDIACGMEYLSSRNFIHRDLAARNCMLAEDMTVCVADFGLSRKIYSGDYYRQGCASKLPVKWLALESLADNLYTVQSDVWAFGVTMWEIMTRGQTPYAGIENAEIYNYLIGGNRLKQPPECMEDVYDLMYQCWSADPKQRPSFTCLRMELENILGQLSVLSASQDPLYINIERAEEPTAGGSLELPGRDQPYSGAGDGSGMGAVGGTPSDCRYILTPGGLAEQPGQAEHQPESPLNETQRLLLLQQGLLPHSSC

[8] = target: Serine/threonine-protein kinase PAK 1 (Homo sapiens) (UniProt Q13153); assay: Inhibition of PAK1 (unknown origin) assessed as residual activity at 1000 nM by KINOMEscan analysis relative to control
[9] = target: GTPase KRas (Homo sapiens) (UniProt P01116); assay: Stabilization of N-terminal His10-tagged wild-type recombinant human KRAS (1 to 169 residues) expressed in Escherichia coli assessed as change in melting temperature at 100 uM with heating from 25 to 85 degreeC by thermal shift assay

COc1cc2nc(C)nc(N[C@H](C)c3cccc(-c4cn[nH]c4)c3)c2cc1OC
Activity [1]: 94%
Activity [2]: 93%
Activity [3]: 89%
Activity [4]: 58%
Activity [5]: 67%
Activity [6]: 95%
Activity [7]: 66%
Activity [8]: 62%

COc1cc2ncnc(N[C@H](C)c3cccc4ccccc34)c2cc1OC
ΔTm [9]: -1.1 °C
Activity [1]: 100%
Activity [2]: 85%
Activity [3]: 96%
Activity [4]: 96%
Activity [5]: 100%
Activity [6]: 92%
Activity [7]: 90%
Activity [8]: 90%

CNCc1ccccc1-c1csc([C@@H](C)Nc2nc(C)nc3cc(OC)c(OC)cc23)c1 [BAY-293]
ΔTm [9]: 0.23 °C
